Results as given in patent publication US10392383B2, “3-(1H-benzo[d]imidazol-2-yl)-1H-pyrazolo[4,3-b]pyridines and therapeutic uses thereof” (Samumed, LLC, priority 2015, dated 2019).

What was measured:
IL-6 (THP-1 cells) = experiment: IL-6 inhibition in LPS-stimulated THP-1 monocytes (HTRF); assay type: cell-based; details: Homo sapiens, IL-6 HTRF; for EC50: 500 ng/mL LPS, Table 6; for inhibition at 10 µM: LPS, Table 6, read-out: percent inhibition at 10 μM (given in parentheses for EC50 >10 μM)
Procedure: Human Monocyte Cell Culture: Human monocyte cell line (THP-1 cells; Catalog # TIB-202, ATCC, Manassas, Va.) were cultured in Roswell Park Memorial Institute (RPMI) 1640 Medium (Catalog #21870-100, Buffalo, N.Y.) with 1% L-glutamine, 1% HEPES, 1% Sodium Pyruvate, 2% Sodium Bicarbonate supplemented with 100 units/mL penicillin, 50 μg/mL streptomycin, 2-mercaptoethanol (0.05 mM) [basal medium] and 10% fetal bovine serum (Catalog #16140089, Life Technologies, Carlsbad, Calif.) at 37° C. and 5% CO2.
Compound Screening: THP-1 cells were cultured in basal media with 1% FBS for 24 hours before the start of the assay. Each compound was dissolved in DMSO as a 10 mM stock and used to prepare compound source plates. Serial dilution (1:3, 10-point dose-response curves starting from 10 μM) and compound transfer was performed using the ECHO 550 (Labcyte, Sunnyvale, Calif.) into 384-well white low volume assay plates (Greiner Bio-One) with appropriate DMSO backfill for a final DMSO concentration of 0.1%. THP-1 cells were plated at 5000 cells/well in the 384-well plates and incubated at 37° C. for 2 h. 500 ng/mL of LPS was added after 2 hours and cells were incubated for another 22 hours at 37° C. Plates were spun in a centrifuge for 1 minute at […] and a mixture of anti-IL6 XL665, and anti-IL6 Cryptate diluted in reconstitution buffer (Cisbio Inc.) was added to each well. Following incubation for 3 hrs at room temperature, Homogeneous Time-Resolved Fluorescence (HTRF) was measured using the Envision (Perkin Elmer) at 665 nm and […]. The ratio of fluorescence at 665 nm to 620 nm was used as a readout for IL6 quantification. All samples were processed in duplicate. Readings were normalized to DMSO treated cells and normalized activities were utilized for EC50 calculations using the dose-response log (inhibitor) vs. response-variable slope (four parameters) nonlinear regression feature available in GraphPad Prism 5.0 (or Dotmatics). For EC50 of >10 μM, the percent inhibition at 10 μM is provided.

SW480 colon cancer cells = experiment: Cell viability assay (CellTiter-Blue) in SW480 cells; assay type: cell-based; details: Homo sapiens, 96 h, four days; for EC50: CellTiter-Blue, 10 μM to 0.0045 μM; for inhibition at 10 µM: read-out: percent inhibition at 10 μM (given for EC50 of >10 μM)
Procedure: Representative compounds were screened using the following assay procedure to assess the effect on cell viability as described below.
Each compound was dissolved in DMSO as a 10 mM stock and used to prepare compound source plates. Serial dilution (1:3, 8-point dose-response curves from 10 μM to 0.0045 μM) and compound transfer was performed using the ECHO 550 (Labcyte, Sunnyvale, Calif.) into 96-well clear bottom, black-walled plates (Corning-Costar).
Approximately 2×10^3 SW480 colon cancer cells were seeded into each well and allowed to incubate in the presence or absence of compound for four days at 37° C./5% CO2. Eight replicates of DMSO-treated cells served as controls and cells treated with compound were performed in duplicate.
After incubation, 20 μL of CellTiter-Blue (Promega) was added to each well allowed to incubate for approximately 3 hours. This reagent was a buffered solution which contains resazurin, metabolically active cells were able to reduce rezarurin (blue) into resorufin (pink) which was highly fluorescent. This measured fluorescence was used as a readout for cell viability.
After incubation, the plates were read at Ex 560 nm Em 590 nm (Cytation 3, BioTek). Dose-response curves were generated and EC50 concentration values were calculated using non-linear regression curve fit in the GraphPad Prism (San Diego, Calif.) or Dotmatics' Studies Software (Bishops Stortford, UK). For EC50 of >10 μM, the percent inhibition at 10 μM is provided.

Compound | EC50 (IL-6 (THP-1 cells)) [µM] | EC50 (SW480 colon cancer cells) [µM] | inhibition at 10 µM (IL-6 (THP-1 cells)) [%] | inhibition at 10 µM (SW480 colon cancer cells) [%]
NC1CN(c2cncc(-c3ccc4[nH]nc(-c5nc6c(-c7ccc(Cl)s7)cccc6[nH]5)c4n3)n2)C1 [Compound 1068, 1-(6-(3-(4-(5-Chlorothiophen-2-yl)-1H-benzo[d]imidazol-2-yl)-1H-pyrazolo [4,3-b]pyridin-5-yl)pyrazin-2-yl)azetidin-3-amine] | > 10 | 0.953 | 42.7 | –
c1cc(-c2ccc3c(c2)OCO3)c2nc(-c3n[nH]c4ccc(C5CCNCC5)nc34)[nH]c2c1 [Compound 1108, 3-(4-(Benzo[d][1,3]dioxol-5-yl)-1H-benzo[d]imidazol-2-yl)-5-(piperidin-4-yl)-1H-pyrazolo[4,3-b]pyridine] | > 10 | 2.28 | 4.6 | –
C1=C(c2ccc3[nH]nc(-c4nc5c(-c6ccc7c(c6)OCO7)cccc5[nH]4)c3n2)CCNC1 [Compound 1109, 3-(4-(Benzo[d][1,3]dioxol-5-yl)-1H-benzo[d]imidazol-2-yl)-5-(1,2,3,6-tetrahydropyridin-4-yl)-1H-pyrazolo[4,3-b]pyridine] | 5.87 | 1.24 | – | –
Cn1cc(-c2ccc3[nH]nc(-c4nc5c(N6CCCCC6)cccc5[nH]4)c3n2)c(CO)n1 [Compound 1134, (1-Methyl-4-(3-(4-(piperidin-1-yl)-1H-benzo[d]imidazol-2-yl)-1H-pyrazolo [4,3-b]pyridin-5-yl)-1H-pyrazol-3-yl)methanol] | > 10 | > 10 | 28.3 | 18.2

The next lines start with results.

EC50 (IL-6 (THP-1 cells)) [µM] | EC50 (SW480 colon cancer cells) [µM] | Compound | inhibition at 10 µM (IL-6 (THP-1 cells)) [%] | inhibition at 10 µM (SW480 colon cancer cells) [%]
> 10 | 5.91 | COc1cccc(-c2cccc3[nH]c(-c4n[nH]c5ccc(-c6cncc(NC(=O)CC(C)(C)C)c6)nc45)nc23)c1 [Compound 1006, N-(5-(3-(4-(3-methoxyphenyl)-1H-benzo[d]imidazol-2-yl)-1H-pyrazolo[4,3-b]pyridin-5-yl)pyridin-3-yl)-3,3-dimethylbutanamide] | 23.8 | –
> 10 | > 10 | COc1cccc(-c2cccc3[nH]c(-c4n[nH]c5ccc(-c6cncc(NC(=O)C7CCCCC7)c6)nc45)nc23)c1 [Compound 1012, N-(5-(3-(4-(3-Methoxyphenyl)-1H-benzo[d]imidazol-2-yl)-1H-pyrazolo[4,3-b]pyridin-5-yl)pyridin-3-yl)cyclohexanecarboxamide] | 33 | 4.6
> 10 | > 10 | COc1cccc(-c2cccc3[nH]c(-c4n[nH]c5ccc(-c6cn[nH]c6)nc45)nc23)c1 [Compound 1020, 3-(4-(3-Methoxyphenyl)-1H-benzo[d]imidazol-2-yl)-5-(1H-pyrazol-4-yl)-1H-pyrazolo[4,3-b]pyridine] | 23.7 | 12.6
4.49 | 5.74 | COc1cccc(-c2cccc3[nH]c(-c4n[nH]c5ccc(-c6cncc(OC7CCNCC7)c6)nc45)nc23)c1 [Compound 1025, 3-(4-(3-Methoxyphenyl)-1H-benzo[d]imidazol-2-yl)-5-(5-(piperidin-4-yloxy)pyridin-3-yl)-1H-pyrazolo[4,3-b]pyridine] | – | –
0.0055 | 1.01 | COc1cccc(-c2cccc3[nH]c(-c4n[nH]c5ccc(-c6cncc(O)c6)nc45)nc23)c1 [Compound 1030, 5-(3-(4-(3-Methoxyphenyl)-1H-benzo[d]imidazol-2-yl)-1H-pyrazolo[4,3-b]pyridin-5-yl)pyridin-3-ol] | – | –
9.72 | 3.01 | Cn1cc(-c2ccc3[nH]nc(-c4nc5c(-c6ccc(F)cc6)cccc5[nH]4)c3n2)c(CO)n1 [Compound 1129, (4-(3-(4-(4-Fluorophenyl)-1H-benzo[d]imidazol-2-yl)-1H-pyrazolo[4,3-b]pyridin-5-yl)-1-methyl-1H-pyrazol-3-yl)methanol] | – | –
